Data: patent US11376307B2, “Compositions and methods of treating cancer with glycomimetic peptides” (SUSAVION BIOSCIENCES, INC., priority 2018, dated 2022)
“Also recorded” adds a separate entry of the source. Positions of bridges follow the written chain, without caps; N, C: chain ends. Chains are numbered I, II in the order given.

Legend:
[1] = Antigenicity assay of mouse sera; parameters: species or system mice; settings: alternate-day injections for 3 months, 1 nmol/g
Procedure: FIG. 10. Test for antigenicity of svL4 and sv6D. Anti-sera were generated in rabbits against KLH-conjugates of the sequences of svL4 or sv6D and diluted 1:10. Mouse sera were collected after alternate-day injections of svL4 over 3 months, diluted 1:1 with PBS and added to protein-A/G-coated wells. Biotinylated svL4 or sv6D was added to wells and bound peptide was detected with a streptavidin-peroxidase conjugate. The figure includes average values for sera from 8 treated mice in each group assayed separately.
Antigenicity Assay The sequence of one arm of svL4 or sv6D was conjugated to keyhole limpet hemocyanin (KLH) and injected into rabbits at two-week intervals (total of 3 injections) (New England Peptide, Inc., Gardner, Mass.). Two weeks after the final injection, sera were prepared. Mice were injected with a peptide every other day over a period of 3 months (total ˜45 injections), blood was then collected by cardiac puncture and sera were prepared. Rabbit serum was diluted 1:10, whereas mouse serum was diluted 1:1 or 1:5 with PBS containing 0.05% Tween-20 (PBST). Sera were incubated in microtiter wells coated with protein A/G (Pierce) for 90 min. The wells were washed three times with PBST, and then incubated with 50 μL of 1 μM biotinylated svL4 or sv6D for 1 h. […]

CLEC9A = biological target: T1, CLEC9A (Homo sapiens, UniProt Q6UXN8); assay: Solid-phase binding assay, survey of other receptors
T1 construct: The extracellular domains of receptors, which were fused with the Fc domain of immunoglobulin IgG; purchased R&D Systems
Procedure: (§1) Binding Assays Solid-phase binding assays were performed with streptavidin-, protein A/G-, or Nickel-coated microtiter plates (Pierce). His-tagged or Fc-fusion recombinant receptors (R&D Systems, Minneapolis, Minn.) were reconstituted in PBS. Sufficient receptors were added to wells to saturate the coating. His-tagged receptors were added to each well at a 5-fold excess over the stated capacity of the Ni coating to minimize non-specific binding of the peptide. Wells were washed three times with binding buffer (25 mM Tris HCl, pH 7.4, 150 mM NaCl, 0.05% Tween-20) to remove unbound receptor and 50 μL of 2 μM biotinylated peptide in binding buffer were added and allowed to incubate for 1 h. The wells were washed four times with binding buffer and then incubated with 50 μL of 1 μg/mL streptavidin conjugated with peroxidase (Sigma-Aldrich) for 1 h. The wells were washed five times with binding buffer and 50 μL of peroxidase substrate (1-Step™ Ultra TMB, Pierce) were added. After several minutes to allow color development, the reaction was stopped with 50 μL 1 M H3PO4 and absorbance was measured at 450 nm. Bound streptavidin was quantitated by the specific activity of peroxidase (absorbance/ng protein conjugate/min) under the conditions of the assay.
(§2) Solid-phase binding assays were performed with recombinant human receptors. Three variations of the binding assay were used in this study, all of which allowed the arms of the tetravalent peptide to have full flexibility. (i) Biotinylated peptide was bound in microtiter wells coated with streptavidin and incubated with recombinant human receptors. After extensive washing, the bound receptor was measured by peroxidase conjugated to a receptor-specific antibody. (ii) The extracellular domains of receptors, which were fused with the Fc domain of immunoglobulin IgG, were bound in wells coated with protein A/G. Biotinylated peptide was incubated with the receptors and, after extensive washing, bound peptide was measured with streptavidin conjugated with peroxidase. Or (iii), recombinant receptors with a poly-His tag were bound to Nickel-coated wells and incubated with biotinylated peptide. svL4 and sv6D contain His residues (FIGS. 1A, 1C) and can bind to the Ni coating, which was minimized by adding sufficient poly-His-tagged receptor to saturate the Ni coating.
(§3) Of the receptors we have assayed thus far, the peptides bound to those specific for GalNAc, which included CLEC4F, a GalNAc-binding receptor expressed by Kupffer cells that is also homologous to ASGPR-1 [50].

CD44 = biological target: T2, CD44 (Homo sapiens, UniProt P16070); assay: as above
T2 construct: The extracellular domains of receptors, which were fused with the Fc domain of immunoglobulin IgG; purchased R&D Systems
Procedure: as §1, §2, §3

Siglec-1 = biological target: T3, Siglec-1 (Homo sapiens, UniProt Q9BZZ2); assay: as above
T3 construct: The extracellular domains of receptors, which were fused with the Fc domain of immunoglobulin IgG; purchased R&D Systems
Procedure: as §1, §2, §3

DC-SIGN = biological target: T4, DC-SIGN (Homo sapiens, UniProt Q9NNX6); assay: as above
T4 construct: The extracellular domains of receptors, which were fused with the Fc domain of immunoglobulin IgG; purchased R&D Systems
T4 sequence (Q9NNX6 59-404 limits assumed): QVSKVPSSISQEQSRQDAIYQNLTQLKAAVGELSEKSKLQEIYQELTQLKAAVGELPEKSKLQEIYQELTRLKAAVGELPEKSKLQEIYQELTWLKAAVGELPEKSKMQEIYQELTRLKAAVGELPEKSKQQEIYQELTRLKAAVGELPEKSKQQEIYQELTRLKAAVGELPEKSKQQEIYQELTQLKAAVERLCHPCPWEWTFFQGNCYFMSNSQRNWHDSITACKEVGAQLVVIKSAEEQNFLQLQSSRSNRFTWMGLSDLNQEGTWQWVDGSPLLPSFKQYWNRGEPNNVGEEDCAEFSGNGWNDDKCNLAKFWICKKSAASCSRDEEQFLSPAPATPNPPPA
Procedure: as §1, §2, §3

IL-4R = biological target: T5, IL-4R (Homo sapiens, UniProt P24394); assay: as above
T5 construct: The extracellular domains of receptors, which were fused with the Fc domain of immunoglobulin IgG; purchased R&D Systems
T5 sequence (P24394 26-232 limits assumed): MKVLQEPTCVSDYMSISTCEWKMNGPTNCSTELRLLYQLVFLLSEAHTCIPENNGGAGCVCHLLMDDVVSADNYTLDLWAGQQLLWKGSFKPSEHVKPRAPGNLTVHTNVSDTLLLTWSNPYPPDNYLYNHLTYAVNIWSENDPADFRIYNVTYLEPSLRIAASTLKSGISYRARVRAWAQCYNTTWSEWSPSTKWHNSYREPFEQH
Procedure: as §1, §2, §3

CLEC4F = assay: as above; parameters: species or system human
Procedure: as §1, with “The wells were washed five times with binding buffer and 50 μL of peroxidase substrate (1-Step™ Ultra TMB, Pierce) were added.” left out
Solid-phase binding assays were performed with recombinant human receptors. […] After extensive washing, the bound receptor was measured by peroxidase conjugated to a receptor-specific antibody. […]

T1 sequence (Q6UXN8 57-241 limits assumed): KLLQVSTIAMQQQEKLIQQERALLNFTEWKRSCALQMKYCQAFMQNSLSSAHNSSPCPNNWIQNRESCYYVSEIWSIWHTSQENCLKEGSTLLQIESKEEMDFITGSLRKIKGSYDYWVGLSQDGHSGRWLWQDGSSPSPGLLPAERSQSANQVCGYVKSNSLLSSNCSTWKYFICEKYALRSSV
T3 sequence (Q9BZZ2 20-1641 limits assumed): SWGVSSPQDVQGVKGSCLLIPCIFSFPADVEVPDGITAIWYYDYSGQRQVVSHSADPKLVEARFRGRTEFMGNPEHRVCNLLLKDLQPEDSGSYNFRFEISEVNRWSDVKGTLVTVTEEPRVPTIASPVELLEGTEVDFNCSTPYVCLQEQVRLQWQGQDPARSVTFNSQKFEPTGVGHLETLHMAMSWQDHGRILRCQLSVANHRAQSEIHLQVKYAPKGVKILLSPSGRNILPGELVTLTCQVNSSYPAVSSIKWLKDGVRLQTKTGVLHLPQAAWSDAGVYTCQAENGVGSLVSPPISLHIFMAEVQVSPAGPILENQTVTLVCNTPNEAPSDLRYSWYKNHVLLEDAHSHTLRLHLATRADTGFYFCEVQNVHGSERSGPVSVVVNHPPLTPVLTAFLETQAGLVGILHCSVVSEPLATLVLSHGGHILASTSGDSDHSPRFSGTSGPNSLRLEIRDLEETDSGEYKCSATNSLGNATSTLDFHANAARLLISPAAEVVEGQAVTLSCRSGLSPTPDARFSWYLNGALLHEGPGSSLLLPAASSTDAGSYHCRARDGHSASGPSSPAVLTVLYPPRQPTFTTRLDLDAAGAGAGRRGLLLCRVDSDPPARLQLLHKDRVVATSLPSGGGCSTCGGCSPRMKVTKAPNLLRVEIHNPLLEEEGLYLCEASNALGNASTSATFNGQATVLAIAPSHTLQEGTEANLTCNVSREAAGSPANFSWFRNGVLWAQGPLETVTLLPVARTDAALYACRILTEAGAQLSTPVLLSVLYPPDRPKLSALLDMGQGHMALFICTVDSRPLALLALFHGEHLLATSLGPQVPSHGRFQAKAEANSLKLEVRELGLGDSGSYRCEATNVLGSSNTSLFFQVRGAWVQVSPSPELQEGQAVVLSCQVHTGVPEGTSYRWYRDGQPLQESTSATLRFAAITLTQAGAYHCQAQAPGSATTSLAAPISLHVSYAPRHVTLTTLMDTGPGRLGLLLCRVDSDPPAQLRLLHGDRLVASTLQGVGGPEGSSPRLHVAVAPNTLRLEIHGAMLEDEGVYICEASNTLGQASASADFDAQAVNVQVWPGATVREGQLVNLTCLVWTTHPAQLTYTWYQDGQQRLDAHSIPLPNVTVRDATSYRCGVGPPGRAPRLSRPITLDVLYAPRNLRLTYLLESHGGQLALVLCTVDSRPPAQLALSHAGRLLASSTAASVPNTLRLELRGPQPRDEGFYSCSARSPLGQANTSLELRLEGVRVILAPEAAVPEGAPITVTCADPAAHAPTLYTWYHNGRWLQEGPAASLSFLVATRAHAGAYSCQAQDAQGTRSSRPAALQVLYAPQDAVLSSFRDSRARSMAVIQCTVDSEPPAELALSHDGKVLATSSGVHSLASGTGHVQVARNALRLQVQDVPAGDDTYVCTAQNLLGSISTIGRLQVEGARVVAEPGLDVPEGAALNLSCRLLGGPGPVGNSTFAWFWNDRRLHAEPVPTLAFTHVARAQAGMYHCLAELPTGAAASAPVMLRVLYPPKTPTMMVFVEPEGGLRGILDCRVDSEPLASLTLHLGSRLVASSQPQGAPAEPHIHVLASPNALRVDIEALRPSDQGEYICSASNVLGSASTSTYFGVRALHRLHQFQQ
T2 sequence (P16070 21-220 limits assumed): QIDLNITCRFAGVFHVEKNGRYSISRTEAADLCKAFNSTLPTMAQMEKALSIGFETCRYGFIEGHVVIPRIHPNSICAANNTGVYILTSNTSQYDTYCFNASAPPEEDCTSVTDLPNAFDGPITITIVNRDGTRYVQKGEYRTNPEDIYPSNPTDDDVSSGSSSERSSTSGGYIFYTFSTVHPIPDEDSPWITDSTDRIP

Substance | Antibodies that bind the peptides in mouse sera (antigenicity) [1] | Binding to CLEC9A (CLEC9A) | Binding to CD44 (CD44) | Binding to Siglec-1 (Siglec-1) | Binding to DC-SIGN (DC-SIGN) | Binding to IL-4R (IL-4R) | Binding to CLEC4F (CLEC4F)
I: H-NQHTPRGGGSKK-NH2 / II: H-NQHTPRGGGSK / III: H-NQHTPRGGGS / IV: H-NQHTPRGGGS (amide I:11-IV:C, I:12-II:C, II:11-III:C) [sv6D] | negative; also recorded: not antigenic | did not bind significantly | not detected | did not bind significantly | did not bind significantly | not detected | bound
I: H-VQATQSNQHTPRGGGSKK-NH2 / II: H-VQATQSNQHTPRGGGSK / III: H-VQATQSNQHTPRGGGS / IV: H-VQATQSNQHTPRGGGS (amide I:17-IV:C, I:18-II:C, II:17-III:C) [svL4] | negative | did not bind significantly | not detected | did not bind significantly | did not bind significantly | not detected | bound
